Experimental data published in patent publication US6737383B1, “Herbicidal oxadiazolidines” (priority 1999, dated 2004).

How the values were obtained:
wheat = assay: Test B pre/postemergence wheat; format: in vivo, Triticum aestivum
Procedure, shortened: (§1)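 Herbicidal effect was estimated by eye on a ten-point control scale after plants spent twelve to sixteen days in a greenhouse following soil or foliar treatment. Foliar sprays targeted plants at one to four leaves; all doses were formulated in a non-phytotoxic solvent with surfactant.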

pigweed = assay: Test B pre/postemergence pigweed; format: in vivo, Amaranthus retroflexus
Procedure, shortened: as §1

surinam grass = assay: Test B pre/postemergence surinam grass; format: in vivo, Brachiaria decumbens
Procedure, shortened: as §1

bedstraw = assay: Test B pre/postemergence bedstraw; format: in vivo, Galium aparine; conditions: for Plant response rating, Bedstraw: Rate 125 g/ha, scale of 0 to 10 where 0 is no effect and 10 is complete control
Procedure, shortened: as §1

velvetleaf = assay: Test B pre/postemergence velvetleaf; format: in vivo, Abutilon theophrasti
Procedure, shortened: as §1

morningglory = assay: Test B pre/postemergence morningglory; format: in vivo, Ipomoea hederacea
Procedure, shortened: as §1

wild oat = assay: Test B pre/postemergence wild oat; format: in vivo, Avena fatua
Procedure, shortened: as §1

rape = assay: Test B pre/postemergence rape; format: in vivo, Brassica napus
Procedure, shortened: as §1

crabgrass = assay: Test B pre/postemergence crabgrass; format: in vivo, Digitaria sanguinalis
Procedure, shortened: as §1

soybean = assay: Test B pre/postemergence soybean; format: in vivo, Glycine max
Procedure, shortened: as §1

corn = assay: Test B pre/postemergence corn; format: in vivo, Zea mays
Procedure, shortened: as §1

sugar beet = assay: Test B pre/postemergence sugar beet; format: in vivo, Beta vulgaris
Procedure, shortened: as §1

blackgrass = assay: Test B pre/postemergence blackgrass; format: in vivo, Alopecurus myosuroides
Procedure, shortened: as §1

purple nutsedge = assay: Test B pre/postemergence purple nutsedge; format: in vivo, Cyperus rotundus
Procedure, shortened: as §1

giant foxtail = assay: Test B pre/postemergence giant foxtail; format: in vivo, Setaria faberii
Procedure, shortened: as §1

cocklebur = assay: Test B pre/postemergence cocklebur; format: in vivo, Xanthium strumarium
Procedure, shortened: as §1

[1] = Postemergence, Rate 62 g/ha, scale 0 to 10, 0 is no effect, 10 is complete control
[2] = Preemergence, Rate 125 g/ha, scale of 0 to 10 where 0 is no effect and 10 is complete control
[3] = Preemergence, Rate 250 g/ha, scale 0 (no effect) to 10 (complete control)
[4] = Rate 62 g/ha, Preemergence, scale 0 to 10
[5] = Rate 250 g/ha, Postemergence, scale 0 to 10, 0 is no effect, 10 is complete control
[6] = Rate 500 g/ha, Postemergence, scale 0 to 10, 0 is no effect, 10 is complete control
[7] = Rate 500 g/ha, Preemergence, scale 0 to 10 (0 no effect, 10 complete control)
[8] = Postemergence, Rate 125 g/ha, scale of 0 to 10 where 0 is no effect and 10 is complete control
[9] = Preemergence, Rate 62 g/ha, scale of 0 to 10 where 0 is no effect and 10 is complete control

## C#CC(CC)n1c(=O)on(C(=O)N(c2ccc(F)cc2)C(C)C)c1=O (stereo not shown) [Compound 753]
wheat; [1]
  Plant response rating, Wheat: 0
wheat; [2]
  Plant response rating, Wheat: 0
wheat; [3]
  Wheat plant response rating: 3
wheat; [4]
  Wheat plant response rating: 0
wheat; [5]
  Wheat plant response rating: 0
wheat; [6]
  Wheat plant response rating: 5
wheat; [7]
  Wheat plant response rating: 3
pigweed; [1]
  Plant response rating, Redroot pigweed: 4
pigweed; [8]
  Redroot pigweed plant response rating: 5
pigweed; [2]
  Plant response rating, Redroot pigweed: 8
pigweed; [3]
  Redroot pigweed plant response rating: 9
pigweed; [4]
  Redroot pigweed plant response rating: 6
pigweed; [5]
  Redroot pigweed plant response rating: 6
pigweed; [6]
  Redroot pigweed plant response rating: 7
pigweed; [7]
  Redroot pigweed plant response rating: 10
Surinam grass; [1]
  Plant response rating, B. signalgrass: 0
Surinam grass; [8]
  B. signalgrass plant response rating: 0
Surinam grass; [9]
  B. signalgrass plant response rating: 2
Surinam grass; [2]
  Plant response rating, B. signalgrass: 7
Surinam grass; [3]
  B. signalgrass plant response rating: 9
Surinam grass; [5]
  B. signalgrass plant response rating: 2
Surinam grass; [6]
  B. signalgrass plant response rating: 7
Surinam grass; [7]
  B. signalgrass plant response rating: 9
bedstraw; Preemergence
  Plant response rating, Bedstraw: 0
bedstraw; [3]
  Bedstraw plant response rating: 3
bedstraw; [4]
  Bedstraw plant response rating: 0
bedstraw; [6]
  Bedstraw plant response rating: 6
bedstraw; [7]
  Bedstraw plant response rating: 3
velvetleaf; [1]
  Plant response rating, Velvetleaf: 0
velvetleaf; [2]
  Plant response rating, Velvetleaf: 0
velvetleaf; [4]
  Velvetleaf plant response rating: 0
velvetleaf; [5]
  Velvetleaf plant response rating: 2
velvetleaf; [6]
  Velvetleaf plant response rating: 2
velvetleaf; [7]
  Velvetleaf plant response rating: 2
morningglory; [8]
  Morningglory plant response rating: 2
morningglory; [2]
  Plant response rating, Morningglory: 0
morningglory; [3]
  Morningglory plant response rating: 0
morningglory; [4]
  Morningglory plant response rating: 0
morningglory; [5]
  Morningglory plant response rating: 9
morningglory; [6]
  Morningglory plant response rating: 10
morningglory; [7]
  Morningglory plant response rating: 0
Wild oat; [1]
  Plant response rating, Wild oats: 0
Wild oat; [2]
  Plant response rating, Wild oats: 4
Wild oat; [3]
  Wild oats plant response rating: 8
Wild oat; [4]
  Wild oats plant response rating: 0
Wild oat; [5]
  Wild oats plant response rating: 0
Wild oat; [6]
  Wild oats plant response rating: 2
Wild oat; [7]
  Wild oats plant response rating: 9
rape; [1]
  Plant response rating, Rape: 0
rape; [8]
  Rape plant response rating: 0
rape; [2]
  Plant response rating, Rape: 5
rape; [3]
  Rape plant response rating: 7
rape; [4]
  Rape plant response rating: 2
rape; [5]
  Rape plant response rating: 0
rape; [6]
  Rape plant response rating: 0
rape; [7]
  Rape plant response rating: 7
crabgrass; [1]
  Plant response rating, Crabgrass: 0
crabgrass; [8]
  Crabgrass plant response rating: 4
crabgrass; [2]
  Plant response rating, Crabgrass: 9
crabgrass; [3]
  Crabgrass plant response rating: 9
crabgrass; [4]
  Crabgrass plant response rating: 9
crabgrass; [5]
  Crabgrass plant response rating: 6
crabgrass; [6]
  Crabgrass plant response rating: 9
crabgrass; [7]
  Crabgrass plant response rating: 9
soybean; [1]
  Plant response rating, Soybean: 1
soybean; [2]
  Plant response rating, Soybean: 0
soybean; [3]
  Soybean plant response rating: 0
soybean; [4]
  Soybean plant response rating: 0
soybean; [5]
  Soybean plant response rating: 4
soybean; [6]
  Soybean plant response rating: 4
soybean; [7]
  Soybean plant response rating: 0
corn; [1]
  Plant response rating, Corn: 0
corn; [8]
  Corn plant response rating: 0
corn; [2]
  Plant response rating, Corn: 0
corn; [3]
  Corn plant response rating: 0
corn; [4]
  Corn plant response rating: 0
corn; [5]
  Corn plant response rating: 0
corn; [6]
  Corn plant response rating: 1
corn; [7]
  Corn plant response rating: 0
Sugar beet; [1]
  Plant response rating, Sugarbeets: 0
Sugar beet; [2]
  Plant response rating, Sugarbeets: 0
Sugar beet; [3]
  Sugarbeets plant response rating: 1
Sugar beet; [4]
  Sugarbeets plant response rating: 0
Sugar beet; [5]
  Sugarbeets plant response rating: 5
Sugar beet; [6]
  Sugarbeets plant response rating: 5
Sugar beet; [7]
  Sugarbeets plant response rating: 8
blackgrass; [1]
  Plant response rating, Blackgrass: 0
blackgrass; [8]
  Blackgrass plant response rating: 2
blackgrass; [2]
  Plant response rating, Blackgrass: 9
blackgrass; [3]
  Blackgrass plant response rating: 9
blackgrass; [4]
  Blackgrass plant response rating: 5
blackgrass; [5]
  Blackgrass plant response rating: 4
blackgrass; [6]
  Blackgrass plant response rating: 4
blackgrass; [7]
  Blackgrass plant response rating: 9
Purple nutsedge; [1]
  Plant response rating, Nutsedge: 0
Purple nutsedge; [8]
  Nutsedge plant response rating: 0
Purple nutsedge; [2]
  Plant response rating, Nutsedge: 0
Purple nutsedge; [3]
  Nutsedge plant response rating: 0
Purple nutsedge; [4]
  Nutsedge plant response rating: 0
Purple nutsedge; [5]
  Nutsedge plant response rating: 2
Purple nutsedge; [6]
  Nutsedge plant response rating: 3
Purple nutsedge; [7]
  Nutsedge plant response rating: 0
Giant foxtail; [1]
  Plant response rating, Giant foxtail: 3
Giant foxtail; [8]
  Giant foxtail plant response rating: 8
Giant foxtail; [2]
  Plant response rating, Giant foxtail: 9
Giant foxtail; [3]
  Giant foxtail plant response rating: 9
Giant foxtail; [4]
  Giant foxtail plant response rating: 9
Giant foxtail; [5]
  Giant foxtail plant response rating: 8
Giant foxtail; [6]
  Giant foxtail plant response rating: 9
Giant foxtail; [7]
  Giant foxtail plant response rating: 9
cocklebur; [1]
  Plant response rating, Cocklebur: 0
cocklebur; [8]
  Cocklebur plant response rating: 0
cocklebur; [2]
  Plant response rating, Cocklebur: 0
cocklebur; [3]
  Cocklebur plant response rating: 0
cocklebur; [4]
  Cocklebur plant response rating: 0
cocklebur; [5]
  Cocklebur plant response rating: 0
cocklebur; [6]
  Cocklebur plant response rating: 4
cocklebur; [7]
  Cocklebur plant response rating: 2

## CC(C)N(C(=O)n1oc(=O)n(CBr)c1=O)c1ccccc1 [Compound 755]
wheat; [2]
  Plant response rating, Wheat: 0
wheat; [3]
  Wheat plant response rating: 0
wheat; [4]
  Wheat plant response rating: 0
wheat; [7]
  Wheat plant response rating: 0
pigweed; [2]
  Plant response rating, Redroot pigweed: 0
pigweed; [3]
  Redroot pigweed plant response rating: 0
pigweed; [4]
  Redroot pigweed plant response rating: 0
pigweed; [7]
  Redroot pigweed plant response rating: 0
Surinam grass; [9]
  B. signalgrass plant response rating: 0
Surinam grass; [2]
  Plant response rating, B. signalgrass: 0
Surinam grass; [3]
  B. signalgrass plant response rating: 0
Surinam grass; [7]
  B. signalgrass plant response rating: 0
bedstraw; Preemergence
  Plant response rating, Bedstraw: 0
bedstraw; [3]
  Bedstraw plant response rating: 0
bedstraw; [4]
  Bedstraw plant response rating: 0
bedstraw; [7]
  Bedstraw plant response rating: 0
velvetleaf; [2]
  Plant response rating, Velvetleaf: 0
velvetleaf; [3]
  Velvetleaf plant response rating: 0
velvetleaf; [4]
  Velvetleaf plant response rating: 0
velvetleaf; [7]
  Velvetleaf plant response rating: 0
morningglory; [2]
  Plant response rating, Morningglory: 0
morningglory; [3]
  Morningglory plant response rating: 0
morningglory; [4]
  Morningglory plant response rating: 0
morningglory; [7]
  Morningglory plant response rating: 0
Wild oat; [2]
  Plant response rating, Wild oats: 0
Wild oat; [3]
  Wild oats plant response rating: 0
Wild oat; [4]
  Wild oats plant response rating: 0
Wild oat; [7]
  Wild oats plant response rating: 0
rape; [2]
  Plant response rating, Rape: 0
rape; [3]
  Rape plant response rating: 0
rape; [4]
  Rape plant response rating: 0
rape; [7]
  Rape plant response rating: 0
crabgrass; [2]
  Plant response rating, Crabgrass: 0
crabgrass; [3]
  Crabgrass plant response rating: 0
crabgrass; [4]
  Crabgrass plant response rating: 0
crabgrass; [7]
  Crabgrass plant response rating: 0
soybean; [2]
  Plant response rating, Soybean: 0
soybean; [3]
  Soybean plant response rating: 0
soybean; [4]
  Soybean plant response rating: 0
soybean; [7]
  Soybean plant response rating: 0
corn; [2]
  Plant response rating, Corn: 0
corn; [3]
  Corn plant response rating: 0
corn; [4]
  Corn plant response rating: 0
corn; [7]
  Corn plant response rating: 0
Sugar beet; [2]
  Plant response rating, Sugarbeets: 0
Sugar beet; [3]
  Sugarbeets plant response rating: 0
Sugar beet; [4]
  Sugarbeets plant response rating: 0
Sugar beet; [7]
  Sugarbeets plant response rating: 0
blackgrass; [2]
  Plant response rating, Blackgrass: 0
blackgrass; [3]
  Blackgrass plant response rating: 0
blackgrass; [4]
  Blackgrass plant response rating: 0
blackgrass; [7]
  Blackgrass plant response rating: 0
Purple nutsedge; [3]
  Nutsedge plant response rating: 0
Purple nutsedge; [4]
  Nutsedge plant response rating: 0
Purple nutsedge; [7]
  Nutsedge plant response rating: 0
Giant foxtail; [2]
  Plant response rating, Giant foxtail: 0
Giant foxtail; [3]
  Giant foxtail plant response rating: 0
Giant foxtail; [4]
  Giant foxtail plant response rating: 0
Giant foxtail; [7]
  Giant foxtail plant response rating: 2
cocklebur; [2]
  Plant response rating, Cocklebur: 0
cocklebur; [3]
  Cocklebur plant response rating: 0
cocklebur; [4]
  Cocklebur plant response rating: 0
cocklebur; [7]
  Cocklebur plant response rating: 0
